According to paper PMC5263248, “Blood Group Antigen Recognition via the Group A Streptococcal M Protein Mediates Host Colonization” (mBio, 2017):

Biological target: T1, M1 protein (Streptococcus pyogenes, UniProt Q99XV0)
T1 construct: gene emm1; captured on NTA chip
Experiment: SPR, single-cycle, steady-state affinity
Type: binding
Conditions: protein captured on NTA chip via His tag, PBS, 25 °C

T1 sequence (Q99XV0 entry or part of it): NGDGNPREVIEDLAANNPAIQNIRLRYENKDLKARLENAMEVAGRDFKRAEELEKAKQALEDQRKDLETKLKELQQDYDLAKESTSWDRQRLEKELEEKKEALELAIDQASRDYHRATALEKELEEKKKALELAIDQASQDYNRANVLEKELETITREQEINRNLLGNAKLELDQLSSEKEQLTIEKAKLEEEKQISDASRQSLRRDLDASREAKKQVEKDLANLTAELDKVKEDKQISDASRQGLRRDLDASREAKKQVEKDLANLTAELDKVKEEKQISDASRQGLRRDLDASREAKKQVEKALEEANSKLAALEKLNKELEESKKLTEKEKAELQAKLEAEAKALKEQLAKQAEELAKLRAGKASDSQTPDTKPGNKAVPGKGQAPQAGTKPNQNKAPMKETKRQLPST

| Structure (SMILES) | Kd [nM] |
| --- | --- |
| C[C@@H]1O[C@@H](O[C@H]2C(O)O[C@H](CO)[C@H](O)[C@@H]2O[C@H]2O[C@H](CO)[C@H](O)[C@H](O)[C@H]2O)[C@@H](O)[C@H](O)[C@@H]1O (some centres unmarked) [blood group B trisaccharide, Galα1-3(Fucα1-2)Gal] | 518 ± 51.3 |
| CC(=O)N[C@H]1[C@@H](O[C@H]2[C@@H](O)[C@@H](CO)OC(O)[C@@H]2O[C@@H]2O[C@@H](C)[C@@H](O)[C@@H](O)[C@@H]2O)O[C@H](CO)[C@H](O)[C@@H]1O (some centres unmarked) [7K, GalNAcα1-3(Fucα1-2)Gal] | 2500 ± 400 |
